Source: publication PMC6010916, “Safety and pharmacokinetics of veliparib extended‐release in patients with advanced solid tumors: a phase I study” (Cancer Medicine, 2018)

Experiments:
[1] = tested on: non-small-cell lung cancer; triple-negative breast cancer; design: method as in earlier work; conditions: combined with carboplatin and paclitaxel; preliminary results; cited from earlier work
[2] = tested on: ovarian and breast carcinoma; assay: Objective tumor response (RECIST version 1.1); format: in vivo, human
Procedure: (§1) Adverse event (AE) severity was assessed according to the National Cancer Institute Common Terminology Criteria for Adverse Events (NCI CTCAE) version 4.0. Tumor evaluations were performed at screening, every 8 weeks after the first administration of study drug, and at the final visit using radiographic measurements from computed tomography or magnetic resonance imaging. Objective tumor responses were evaluated using RECIST version 1.1 criteria. Patients who received one or more doses of veliparib were included in the PK and safety analyses, as well as for evaluation of time to disease progression (TTP). Patients with one or more measurable lesion at baseline were included in the analysis of objective responses.

[3] = cited from earlier work
[4] = tested on: advanced solid tumors (ovarian, breast carcinoma); assay: Time to disease progression (TTP); format: in vivo, human
Procedure: as §1

[5] = 16 evaluable patients with breast carcinoma (all BRCA mutation carriers)
[6] = 42 evaluable breast and ovarian carcinoma patients with deleterious BRCA mutations
[7] = 44 evaluable patients with ovarian carcinoma
[8] = Deleterious BRCA mutation, Breast (n = 16)
[9] = Deleterious BRCA mutation, Ovarian (n = 26)
[10] = Deleterious BRCA mutation, Overall (N = 42)

## C[C@]1(c2nc3c(C(N)=O)cccc3[nH]2)CCCN1 [veliparib]
[1]
  primary endpoints (overall survival or complete pathologic response): did not meet their primary endpoints
[2]; [5]
  confirmed partial responses: 25.0%
  partial response (confirmed and unconfirmed): 62.5%
[2]; 16 patients with breast carcinoma and deleterious BRCA mutations
  confirmed partial responses: 25.0%
[2]; 26 patients with ovarian carcinoma and deleterious BRCA mutations
  confirmed partial responses: 11.5%
[2]; [6]
  confirmed partial responses: 16.7%
  partial response (confirmed and unconfirmed): 40.5%
[2]; [7]
  confirmed partial responses: 11.4%
  partial response (confirmed and unconfirmed): 27.3%
[2]; 60 evaluable patients
  confirmed overall ORR: 15%
  overall (confirmed and unconfirmed) ORR: 36.7%
[2]; Breast (n = 16)
  CR, confirmed: 0 n (%)
  ORR (CR + PR), confirmed: 4 (25.0)— n/N (%) (95% CI)
  PR, confirmed: 4 (25.0) n (%)
[2]; [8]
  CR, confirmed: 0 n (%)
  ORR (CR + PR), confirmed: 4 (25.0) n/N (%)
  PR, confirmed: 4 (25.0) n (%)
[2]; [9]
  CR, confirmed: 0 n (%)
  ORR (CR + PR), confirmed: 3 (11.5) n/N (%)
  PR, confirmed: 3 (11.5) n (%)
[2]; [10]
  CR, confirmed: 0 n (%)
  PR, confirmed: 7 (16.7) n (%)
[2]; Ovarian (n = 44)
  CR, confirmed: 0 n (%)
  PR, confirmed: 5 (11.4) n (%)
[2]; Ovarian (n = 44), measurable lesion at baseline
  ORR (CR + PR), confirmed: 5 (11.4)— n/N (%) (95% CI)
[2]; Overall (N = 60)
  CR, confirmed: 0 n (%)
  PR, confirmed: 9 (15.0) n (%)
[2]; nine patients with unknown BRCA status and measurable disease, all ovarian carcinoma
  partial response (two confirmed, two unconfirmed): 44.4%
[2]; ovarian carcinoma patients with no BRCA mutation
  objective responses: No confirmed and one unconfirmed objective responses
[3]
  absorption: rapid absorption
  elimination: predominant elimination through urinary excretion of the unchanged drug
  oral bioavailability: high oral bioavailability
[4]; breast carcinoma (n = 17)
  6-month TTP rate: 53.5%
[4]; deleterious BRCA mutations, breast carcinoma
  6-month TTP rate: 53.5%
[4]; deleterious BRCA mutations, ovarian carcinoma
  6-month TTP rate: 35.7%
[4]; ovarian carcinoma (n = 53)
  6-month TTP rate: 31.8%
[4]; overall (N = 71)
  6-month TTP rate (had not progressed at 6 months): 38.1%
[4]; overall population (N = 71)
  median TTP: 149 days
[4]; patients with deleterious BRCA mutations
  6-month TTP rate: 43.0%
[4]; patients without BRCA mutations
  6-month TTP rate: 22.9%
[4]; unknown BRCA mutation status
  6-month TTP rate: 27.8%
